Data as given in patent publication US11382956B2, “Amylin analogues” (Zealand Pharma A/S, priority 2016, dated 2022).
pEC50: −log10 of the molar value. Numbered stars: 1 amine (or outer) side, 2 acyl side, 3 side chain; on linkers, the order of the positions; unused ones are H or OH. Bridge positions count the residues as written; N and C are the ends. Square brackets hold non-standard residues; d marks the D form. Peptide text beside a SMILES is read from it. * marks the point of attachment. C20 diacid = O=C(O)CCCCCCCCCCCCCCCCCCC(=O)*; γGlu = O=C(O)[C@H](CCC(=O)[*:2])N[*:1]; Hyp = O=C(O)[C@@H]1C[C@@H](O)CN1; NMeI = CC[C@H](C)[C@H](NC)C(=O)O; Aad = N[C@@H](CCCC(=O)O)C(=O)O; hLys = NCCCCC[C@H](N)C(=O)O; Dab = NCC[C@H](N)C(=O)O; Dap = NC[C@H](N)C(=O)O; Sar = CNCC(=O)O

Legend:
[1] = biological target: T1, recombinant human calcitonin receptor (hCT-R) (Homo sapiens, UniProt P30988); assay: hCT-R cAMP assay (AlphaScreen) in 1321N1 cells; type: cell-based; conditions: cAMP formation, 45 min stimulation
T1 construct: host or cells: human astrocytoma cell line 1321N1
T1 sequence (P30988 25-474): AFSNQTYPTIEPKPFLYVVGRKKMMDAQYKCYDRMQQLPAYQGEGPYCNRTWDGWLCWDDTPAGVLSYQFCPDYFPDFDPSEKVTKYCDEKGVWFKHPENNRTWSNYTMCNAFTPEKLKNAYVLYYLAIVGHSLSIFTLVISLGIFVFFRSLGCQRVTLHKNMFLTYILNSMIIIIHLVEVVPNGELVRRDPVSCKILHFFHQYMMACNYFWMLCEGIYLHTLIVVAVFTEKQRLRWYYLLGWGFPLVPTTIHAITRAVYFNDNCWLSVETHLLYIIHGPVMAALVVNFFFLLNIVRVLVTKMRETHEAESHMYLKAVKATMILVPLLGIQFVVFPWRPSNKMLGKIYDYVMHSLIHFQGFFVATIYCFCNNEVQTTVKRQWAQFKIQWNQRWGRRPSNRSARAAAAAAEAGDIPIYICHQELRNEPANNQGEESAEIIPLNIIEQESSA
Method in brief: (§1)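 EC50 values come from curve fits over at least 7 peptide concentrations, with cAMP read by AlphaScreen competition after 1 h in the dark. Cells were 1321N1 lines carrying human calcitonin receptor, with RAMP3 co-expressed for AMY3, treated 45 min at room temperature in the presence of IBMX.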

[2] = Chemical stability, alternative analysis in MilliQ water with pH adjusted, 40° C. (RP-HPLC); type: physicochemical; conditions: for % degradation after 8 days at 40° C. pH4: pH adjusted to 4.0, 8 days; for % degradation after 8 days at 40° C. pH7.5: pH adjusted to 7.5, 8 days; for % degradation after 8 days at 40° C. pH9: pH adjusted to 9.0, 8 days
Procedure: In an alternative analysis, peptides were dissolved in MilliQ water and pH adjusted to 4.0, 7.5 or 9.0. Samples were placed in glass vials and incubated at 40° C. The samples were analyzed by RP-HPLC on a C8 column with gradient elution using a trifluoroacetic acid/acetonitrile/water eluent system. The area-percentage (area-%) of the main peak was determined by UV spectroscopy at 220 nm at each sampling time point.
The % degradation was calculated by subtracting the […].
The results of the chemical stability assessment after 8 days of incubation time are summarized as % degradation in Table 3 (below).

[3] = biological target: T2, recombinant human amylin 3 receptor (hAMYR3) (Homo sapiens, UniProt O60896+P30988); assay: hAMYR3 cAMP assay (AlphaScreen) in 1321N1 cells; type: cell-based; conditions: cAMP formation, 45 min stimulation
T2 construct: host or cells: human astrocytoma cell line 1321N1
T2 sequence (P30988 25-474): T1 sequence (P30988 25-474)
T2 sequence (O60896 24-148 partner): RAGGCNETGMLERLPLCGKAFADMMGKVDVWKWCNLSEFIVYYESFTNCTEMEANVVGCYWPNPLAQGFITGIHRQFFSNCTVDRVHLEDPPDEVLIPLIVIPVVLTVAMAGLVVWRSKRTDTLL
Method in brief: as §1

| pEC50 [1] | % degradation after 8 days at 40° C. pH4 [2] [%] | % degradation after 8 days at 40° C. pH7.5 [2] [%] | % degradation after 8 days at 40° C. pH9 [2] [%] | pEC50 [3] | Compound |
| --- | --- | --- | --- | --- | --- |
| 8.98 | 1.7 | 2.1 | 3.0 | 9.35 | CC[C@H](C)[C@@H](C(=O)N[C@@H](CC(C)C)C(=O)N[C@@H](CO)C(=O)N[C@@H](CO)C(=O)N[C@H](C(=O)N[C@@H](CCC(=O)O)C(=O)N[C@H](C(=O)NCC(=O)N[C@@H](CO)C(=O)N[C@@H](CC(N)=O)C(=O)N[C@H](C(=O)N1C[C@H](O)C[C@H]1C(N)=O)[C@@H](C)O)C(C)C)[C@@H](C)O)N(C)C(=O)[C@H](C)NC(=O)CN(C)C(=O)[C@H](Cc1ccccc1)NC(=O)[C@H](CO)NC(=O)[C@H](CO)NC(=O)[C@H](CCCNC(=N)N)NC(=O)[C@H](CCC(N)=O)NC(=O)[C@H](CC(C)C)NC(=O)[C@H](Cc1ccccc1)NC(=O)[C@H](Cc1c[nH]cn1)NC(=O)[C@H](C)NC(=O)[C@H](CC(C)C)NC(=O)[C@H](CCCNC(=N)N)NC(=O)[C@H](CCC(=O)O)NC(=O)[C@@H](NC(=O)[C@H](C)NC(=O)[C@@H]1CCC(=O)NCC[C@H](NC(=O)[C@H](CCCNC(=N)N)NC(=O)CC[C@H](NC(=O)CCCCCCCCCCCCCCCCCCC(=O)O)C(=O)O)C(=O)NCC(=O)N[C@@H]([C@@H](C)O)C(=O)N[C@@H](C)C(=O)N[C@@H]([C@@H](C)O)C(=O)N1)[C@@H](C)O [Compound 49, [19CD]-isoGlu-R-Dab()-GTATE()ATERLAHFLQRSSF-Gly(Me)-A-Ile(Me)-LSSTEVGSNT-Hyp-NH2] ({C20 diacid-γGlu}-R[Dab]GTATEATERLAHFLQRSSF[Sar]A[NMeI]LSSTEVGSNT[Hyp]-NH2; lactam 2-7) |
| 9.06 | 3.1 | 4.6 | 4.6 | 9.51 | CC[C@H](C)[C@@H](C(=O)N[C@@H](CC(C)C)C(=O)N[C@@H](CO)C(=O)N[C@@H](CO)C(=O)N[C@H](C(=O)N[C@@H](CCC(=O)O)C(=O)N[C@H](C(=O)NCC(=O)N[C@@H](CO)C(=O)N[C@@H](CC(N)=O)C(=O)N[C@H](C(=O)N1C[C@H](O)C[C@H]1C(N)=O)[C@@H](C)O)C(C)C)[C@@H](C)O)N(C)C(=O)[C@H](C)NC(=O)CN(C)C(=O)[C@H](Cc1ccccc1)NC(=O)[C@H](CO)NC(=O)[C@H](CO)NC(=O)[C@H](CCCNC(=N)N)NC(=O)[C@H](CCC(N)=O)NC(=O)[C@H](CC(C)C)NC(=O)[C@H](Cc1ccccc1)NC(=O)[C@H](Cc1c[nH]cn1)NC(=O)[C@H](C)NC(=O)[C@H](CC(C)C)NC(=O)[C@H](CCCNC(=N)N)NC(=O)[C@H](CCC(=O)O)NC(=O)[C@@H](NC(=O)[C@H](C)NC(=O)[C@@H]1CCNC(=O)CC[C@H](NC(=O)[C@H](CCCNC(=N)N)NC(=O)CC[C@H](NC(=O)CCCCCCCCCCCCCCCCCCC(=O)O)C(=O)O)C(=O)NCC(=O)N[C@@H]([C@@H](C)O)C(=O)N[C@@H](C)C(=O)N[C@@H]([C@@H](C)O)C(=O)N1)[C@@H](C)O [Compound 51, [19CD]-isoGlu-RE()GTAT-Dab()-ATERLAHFLQRSSF-Gly(Me)-A-Ile(Me)-LSSTEVGSNT-Hyp-NH2] ({C20 diacid-γGlu}-REGTAT[Dab]ATERLAHFLQRSSF[Sar]A[NMeI]LSSTEVGSNT[Hyp]-NH2; lactam 2-7) |
| 9.97 | 1.8 | 2.3 | 2.5 | 10.70 | CC[C@H](C)[C@@H](C(=O)N[C@@H](CC(C)C)C(=O)N[C@@H](CO)C(=O)N[C@@H](CO)C(=O)N[C@H](C(=O)N[C@@H](CCC(=O)O)C(=O)N[C@H](C(=O)NCC(=O)N[C@@H](CO)C(=O)N[C@@H](CC(N)=O)C(=O)N[C@H](C(=O)N1C[C@H](O)C[C@H]1C(N)=O)[C@@H](C)O)C(C)C)[C@@H](C)O)N(C)C(=O)[C@H](C)NC(=O)CN(C)C(=O)[C@H](Cc1ccccc1)NC(=O)[C@H](CO)NC(=O)[C@H](CO)NC(=O)[C@H](CCCNC(=N)N)NC(=O)[C@H](CCC(N)=O)NC(=O)[C@H](CC(C)C)NC(=O)[C@H](Cc1ccccc1)NC(=O)[C@H](Cc1c[nH]cn1)NC(=O)[C@H](C)NC(=O)[C@H](CC(C)C)NC(=O)[C@H](CCCNC(=N)N)NC(=O)[C@H](CCC(=O)O)NC(=O)[C@@H](NC(=O)[C@H](C)NC(=O)[C@@H]1CCCC(=O)NC[C@H](NC(=O)[C@H](CCCNC(=N)N)NC(=O)CC[C@H](NC(=O)CCCCCCCCCCCCCCCCCCC(=O)O)C(=O)O)C(=O)NCC(=O)N[C@@H]([C@@H](C)O)C(=O)N[C@@H](C)C(=O)N[C@@H]([C@@H](C)O)C(=O)N1)[C@@H](C)O [Compound 48, [19CD]-isoGlu-R-Dap()-GTAT-Aad()-ATERLAHFLQRSSF-Gly(Me)-A-Ile(Me)-LSSTEVGSNT-Hyp-NH2] ({C20 diacid-γGlu}-R[Dap]GTAT[Aad]ATERLAHFLQRSSF[Sar]A[NMeI]LSSTEVGSNT[Hyp]-NH2; lactam 2-7) |
| 10.55 | 3.9 | 6.2 | 4.2 | 11.22 | CC[C@H](C)[C@@H](C(=O)N[C@@H](CC(C)C)C(=O)N[C@@H](CO)C(=O)N[C@@H](CO)C(=O)N[C@H](C(=O)N[C@@H](CCC(=O)O)C(=O)N[C@H](C(=O)NCC(=O)N[C@@H](CO)C(=O)N[C@@H](CC(N)=O)C(=O)N[C@H](C(=O)N1C[C@H](O)C[C@H]1C(N)=O)[C@@H](C)O)C(C)C)[C@@H](C)O)N(C)C(=O)[C@H](C)NC(=O)CN(C)C(=O)[C@H](Cc1ccccc1)NC(=O)[C@H](CO)NC(=O)[C@H](CO)NC(=O)[C@H](CCCNC(=N)N)NC(=O)[C@H](CCC(N)=O)NC(=O)[C@H](CC(C)C)NC(=O)[C@H](Cc1ccccc1)NC(=O)[C@H](Cc1c[nH]cn1)NC(=O)[C@H](C)NC(=O)[C@H](CC(C)C)NC(=O)[C@H](CCCNC(=N)N)NC(=O)[C@H](CCC(=O)O)NC(=O)[C@@H](NC(=O)[C@H](C)NC(=O)[C@@H]1CCCCCNC(=O)C[C@H](NC(=O)[C@H](CCCNC(=N)N)NC(=O)CC[C@H](NC(=O)CCCCCCCCCCCCCCCCCCC(=O)O)C(=O)O)C(=O)NCC(=O)N[C@@H]([C@@H](C)O)C(=O)N[C@@H](C)C(=O)N[C@@H]([C@@H](C)O)C(=O)N1)[C@@H](C)O [Compound 19, [19CD]-isoGlu-RD()GTAT-hLys()-ATERLAHFLQRSSF-Gly(Me)-A-Ile(Me)-LSSTEVGSNT-Hyp-NH2] ({C20 diacid-γGlu}-RDGTAT[hLys]ATERLAHFLQRSSF[Sar]A[NMeI]LSSTEVGSNT[Hyp]-NH2; lactam 2-7) |
